Results as given in patent US20030180957A1, “Target and method” (Sense Proteomic Limited, priority 2001, published 2003).

Biological target: Neutravidin (Gallus gallus, UniProt P02701)
Assay: surface capture of BSA-biotin on Neutravidin coated MALDI target, competition by free biotin
Assay type: binding
Conditions: MALDI target coated with PLL-PEG-biotin and Neutravidin; MALDI mass spectrum readout
From the text: The specificity of the surface capture was confirmed with the following experiments. BSA-Biotin was deposited on the MALDI target without Neutravidin or without the Biotin layer. BSA-Biotin was not detected in either case. Furthermore, binding of BSA-biotin to the Neutravidin coated surface is inhibited by the presence of free biotin. The database search results for BSA-biotin are presented in the appendix A.
MALDI targets are cleaned before use with acetone, acetonitrile, double distilled water and dried under nitrogen. Each position on the MALDI target is coated with 500 nanoliter 1%PLL-PEG-2%Biotin solution dissolved in desalting buffer. The target is then placed in a humid chamber for one hour at room temperature. Unbound PLL-PEG is rinsed with […] washing buffer followed by two washes with […] washing buffer. The target surface is dried under nitrogen. The PLL-PEG coating is then overlaid with 500 nanoliter of 0.5 mg/ml Neutravidin at each position of the array, incubated for one hour at RT in a humid chamber, rinsed with washing buffer, washed twice with […] washing buffer and dried under nitrogen. THE MALDI target is now ready to be used as a highly specific affinity capture surface. […]

Sequence of Neutravidin (P02701 25-152): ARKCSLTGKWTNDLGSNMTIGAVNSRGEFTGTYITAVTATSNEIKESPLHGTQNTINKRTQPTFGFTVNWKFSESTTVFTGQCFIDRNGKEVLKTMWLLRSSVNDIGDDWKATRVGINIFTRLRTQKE

Structure (SMILES): O=C(O)CCCC[C@@H]1SC[C@@H]2NC(=O)N[C@@H]21 [biotin]
- binding of BSA-biotin to the Neutravidin coated surface in the presence of free biotin: inhibited
